Drawing on doi:10.1101/2022.04.05.487228v1 (biorxiv, 2022), this text covers EC50 for four compounds.

SMILES strings stand for the structures.

A word on the EC50: it is the midpoint of the concentration-response curve. Low readings indicate a more potent agent, high ones a less potent agent.

The assay deals with bovine rod opsin (unliganded, in ROS membranes) (Bos taurus, UniProt P02699). As to the kind of experiment: intrinsic Trp fluorescence quenching at […] nm. It is filed as binding.
Sequence of bovine rod opsin (unliganded, in ROS membranes) (P02699 whole entry): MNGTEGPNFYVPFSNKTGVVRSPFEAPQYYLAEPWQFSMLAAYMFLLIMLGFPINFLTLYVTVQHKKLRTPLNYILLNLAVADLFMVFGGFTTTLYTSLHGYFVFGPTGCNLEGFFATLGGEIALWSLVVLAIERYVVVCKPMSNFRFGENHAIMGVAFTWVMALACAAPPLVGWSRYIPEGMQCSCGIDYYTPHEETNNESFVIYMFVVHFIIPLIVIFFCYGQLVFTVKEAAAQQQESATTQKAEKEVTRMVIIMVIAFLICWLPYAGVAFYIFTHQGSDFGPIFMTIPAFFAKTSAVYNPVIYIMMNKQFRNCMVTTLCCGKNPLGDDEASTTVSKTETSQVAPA
In turn, `Cc1cc(=O)oc2cc(OC(C(=O)c3ccccc3)c3ccccc3)ccc12` (stereo not shown) [CR1] displayed an EC50 of 275 ± 26 nM. As to `Cc1c(OCc2ccc(C(=O)O)cc2)ccc2c3c(c(=O)oc12)CCC3` [CR2], the EC50 worked out at 375 ± 21 nM. `Cc1ccc(C(=O)Oc2ccc3c4c(c(=O)oc3c2)CCCC4)cc1` [CR3] came in with an EC50 of 207 ± 46 nM. `Cc1c(OC(C)C(=O)OCc2ccccc2)ccc2c3c(c(=O)oc12)CCC3` (stereo not shown) [CR4] returned an EC50 of 171 ± 23 nM.
